According to ChEMBL document CHEMBL1201862, “PubChem BioAssay data set” (2004):
Counter-ions that a name gives are not always drawn. Calls of active or inactive are those of the source.

Columns and labels:
[1] = target: T1, Short transient receptor potential channel 4 (Mus musculus, UniProt Q9QUQ5); assay: block of DAMGO-driven TRPC4 calcium entry – cell-based, HEK293 TRPC4/mu-opioid, Fluo-4 calcium, dose response (AID 434942); format: functional;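 note: potency of inhibitors blocking the TRPC4 calcium response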
T1 sequence (Q9QUQ5 whole entry): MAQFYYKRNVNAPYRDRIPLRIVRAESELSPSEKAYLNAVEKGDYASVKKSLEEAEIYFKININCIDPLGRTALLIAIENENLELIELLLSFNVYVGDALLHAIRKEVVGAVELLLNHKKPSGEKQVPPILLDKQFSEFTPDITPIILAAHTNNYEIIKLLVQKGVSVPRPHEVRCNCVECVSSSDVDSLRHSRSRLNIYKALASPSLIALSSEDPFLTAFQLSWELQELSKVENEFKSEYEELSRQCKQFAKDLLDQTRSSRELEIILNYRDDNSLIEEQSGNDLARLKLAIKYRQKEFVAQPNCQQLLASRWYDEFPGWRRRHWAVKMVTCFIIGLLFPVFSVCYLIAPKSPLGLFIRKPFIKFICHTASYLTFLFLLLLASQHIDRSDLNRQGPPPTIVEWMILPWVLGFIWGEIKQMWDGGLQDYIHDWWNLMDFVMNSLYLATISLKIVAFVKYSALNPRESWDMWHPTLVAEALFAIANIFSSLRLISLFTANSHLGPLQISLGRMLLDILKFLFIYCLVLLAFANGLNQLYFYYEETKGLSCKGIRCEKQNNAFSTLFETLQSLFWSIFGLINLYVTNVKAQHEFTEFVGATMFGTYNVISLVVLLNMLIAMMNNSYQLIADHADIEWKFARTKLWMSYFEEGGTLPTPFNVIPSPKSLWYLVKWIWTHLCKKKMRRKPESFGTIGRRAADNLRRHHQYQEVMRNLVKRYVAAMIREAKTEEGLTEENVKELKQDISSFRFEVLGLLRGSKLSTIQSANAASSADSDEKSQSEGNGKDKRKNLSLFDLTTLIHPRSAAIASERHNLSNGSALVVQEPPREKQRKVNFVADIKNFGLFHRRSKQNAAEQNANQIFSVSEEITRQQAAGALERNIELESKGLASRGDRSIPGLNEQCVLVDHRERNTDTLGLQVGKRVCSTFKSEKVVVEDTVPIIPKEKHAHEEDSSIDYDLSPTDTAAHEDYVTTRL

[2] = A cytotoxicity screen of small molecule inhibitors of the PhoP region in Salmonella typhi identified in the primary screen. [Related pubchem assays: 1850, 1864, 1985 ]; format: functional
[3] = microbe, parasite or virus in culture; format: functional; settings: Mycobacterium tuberculosis
[4] = THP-1 cell cytotoxicity, dose response, cytotoxicity control for non-replicating M. tuberculosis project (AID 489025); format: functional
cells = format: functional
[5] = target: FAD-linked sulfhydryl oxidase ALR (Homo sapiens, UniProt P55789); assay: ALR-catalysed DTT oxidation blockers – biochemical, H2O2 detection, luminescence, cherry-pick, dose response (AID 493248)
FAD-linked sulfhydryl oxidase ALR, sequence (P55789 whole entry): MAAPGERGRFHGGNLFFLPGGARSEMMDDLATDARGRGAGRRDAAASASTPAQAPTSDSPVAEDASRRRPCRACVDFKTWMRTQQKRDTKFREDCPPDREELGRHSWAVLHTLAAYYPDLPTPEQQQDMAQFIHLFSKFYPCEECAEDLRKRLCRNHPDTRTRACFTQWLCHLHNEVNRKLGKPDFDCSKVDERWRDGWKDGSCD

[6] = target: T2, DNA repair protein RAD52 homolog (Homo sapiens, UniProt P43351); format: functional, biochemical
T2 sequence (P43351 whole entry): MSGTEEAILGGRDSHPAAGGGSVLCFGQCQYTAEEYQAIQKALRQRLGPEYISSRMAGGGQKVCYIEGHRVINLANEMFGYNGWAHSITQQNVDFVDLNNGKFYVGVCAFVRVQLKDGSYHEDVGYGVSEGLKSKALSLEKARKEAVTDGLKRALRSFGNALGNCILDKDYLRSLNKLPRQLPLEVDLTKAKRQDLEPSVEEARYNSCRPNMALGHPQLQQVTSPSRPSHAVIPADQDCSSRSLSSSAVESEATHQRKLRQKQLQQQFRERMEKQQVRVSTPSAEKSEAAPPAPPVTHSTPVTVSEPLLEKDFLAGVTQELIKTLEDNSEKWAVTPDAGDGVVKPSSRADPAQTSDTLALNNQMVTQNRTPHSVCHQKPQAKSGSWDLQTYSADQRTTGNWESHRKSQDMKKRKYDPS

[7] = viability of HCT116 lacking mutant beta-catenin – cell-based, human colon tumor, dose response (AID 1045); format: functional;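 note: HCT116 colon tumor cells with beta catenin knocked out; cells exposed to compound for 60 hours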
[8] = viability of PTEN-deleted HCT116 cells – cell-based, HCT116 PTEN knockout, dose response (AID 1047); format: functional;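 note: HCT116 colon tumor cells with PTEN knocked out; cells exposed to compound for 60 hours before readout; potency for loss of cell viability measured by luminescence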
[9] = target: T3, Polyadenylate-binding protein 1 (Homo sapiens, UniProt P11940); assay: MLLE domain peptide-binding blockers, IC50 – biochemical, fluorescence polarization, FITC-PAM2 peptide, dose response (AID 602259); format: functional; settings: read-out: IC50_Mean
T3 sequence (P11940 whole entry, the tested form may be a part): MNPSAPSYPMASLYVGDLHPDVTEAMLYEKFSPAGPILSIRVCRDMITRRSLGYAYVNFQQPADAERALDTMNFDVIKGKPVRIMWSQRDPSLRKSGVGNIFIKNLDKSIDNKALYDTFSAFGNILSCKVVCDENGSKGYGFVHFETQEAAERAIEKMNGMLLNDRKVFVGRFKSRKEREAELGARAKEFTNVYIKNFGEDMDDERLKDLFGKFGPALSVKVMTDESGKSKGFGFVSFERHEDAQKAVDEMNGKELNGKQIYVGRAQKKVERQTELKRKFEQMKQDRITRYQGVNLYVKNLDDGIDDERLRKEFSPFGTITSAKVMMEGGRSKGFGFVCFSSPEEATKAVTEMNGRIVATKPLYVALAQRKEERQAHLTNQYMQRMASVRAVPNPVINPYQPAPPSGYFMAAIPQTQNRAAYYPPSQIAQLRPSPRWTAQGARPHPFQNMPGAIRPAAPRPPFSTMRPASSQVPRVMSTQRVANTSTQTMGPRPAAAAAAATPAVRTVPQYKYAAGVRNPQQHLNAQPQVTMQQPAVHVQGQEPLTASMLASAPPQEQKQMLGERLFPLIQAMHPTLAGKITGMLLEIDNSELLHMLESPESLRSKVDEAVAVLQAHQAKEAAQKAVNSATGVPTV

[10] = target: T3, Polyadenylate-binding protein 1; assay: MLLE binding blockers, Cy5 peptide tracer – biochemical, fluorescence polarization, Cy5-PAM2 peptide, secondary, miRNA deadenylation inhibitor project, dose response (AID 602260); format: functional; settings: read-out: IC50_Mean
[11] = alpha-synuclein stem-loop luciferase translation blockers – H4 neuroglioma cells, luminescence, confirmation (AID 1988); format: functional, cell-based
[12] = luciferase reporter signal suppression in cells – H4 neuroglioma cells, luminescence, dose response (AID 1990); format: functional, cell-based
[13] = Luminescence Cell-Based Dose Response HTS to Identify Inhibitors of 5'UTR Stem-Loop Driven Prion Protein mRNA Translation in H4 Neuroglioblastoma Cells. [Related pubchem assays: 1827 (Project Summary), 1813 (Primary HTS)]; format: functional
[14] = fluconazole-exposed Candida albicans growth modulators – fluorescence, retest, confirmation (AID 2467); format: functional, cell-based
[15] = Trypanosoma cruzi growth suppression in host cells – NIH3T3 host cells, beta-gal luminescence, confirmation (AID 2044); format: functional, cell-based;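 note: intracellular parasites grown in NIH/3T3 mouse fibroblasts as host cells; luminescent beta-galactosidase reporter signal from transgenic T. cruzi replicating inside host cells; inhibitors lower the luminescence signal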
[16] = NIH3T3 cell viability loss – ATP luminescence, mouse fibroblasts, counter-screen, dose response (AID 2010); format: functional, cell-based;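 note: cells exposed to compound for about 90 hours before reading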
[17] = NIH-3T3 fibroblast cytotoxicity, dose response, cytotoxicity control, cell-based, fluorescence, Alamar Blue, secondary assay (AID 2327); format: functional;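 note: NIH-3T3 mouse fibroblasts cultured with fluconazole at 8 µg/mL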
Caspase-6 = target: T4, Caspase-6 (Homo sapiens, UniProt P55212); assay: inhibition of CASP6 peptide cleavage – biochemical, VEID-R110 fluorescence, cherry-pick, dose response (AID 720632)
T4 sequence (P55212 whole entry): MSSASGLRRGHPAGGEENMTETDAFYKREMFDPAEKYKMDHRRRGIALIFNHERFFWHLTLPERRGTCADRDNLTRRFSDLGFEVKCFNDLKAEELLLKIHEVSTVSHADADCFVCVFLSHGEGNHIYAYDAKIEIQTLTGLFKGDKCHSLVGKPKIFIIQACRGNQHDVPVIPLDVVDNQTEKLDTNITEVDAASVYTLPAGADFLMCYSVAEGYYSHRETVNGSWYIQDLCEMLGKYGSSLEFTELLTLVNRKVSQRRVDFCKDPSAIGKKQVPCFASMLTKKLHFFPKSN

[18] = target: T5, Rac GTPase-activating protein 1 (Homo sapiens, UniProt Q9H0H5); assay: blockers of MgcRacGAP-driven Rac1 GTP hydrolysis – biochemical, ADP Hunter fluorescence, primary and confirmatory, confirmation (AID 624330); format: functional
T5 sequence (Q9H0H5 whole entry): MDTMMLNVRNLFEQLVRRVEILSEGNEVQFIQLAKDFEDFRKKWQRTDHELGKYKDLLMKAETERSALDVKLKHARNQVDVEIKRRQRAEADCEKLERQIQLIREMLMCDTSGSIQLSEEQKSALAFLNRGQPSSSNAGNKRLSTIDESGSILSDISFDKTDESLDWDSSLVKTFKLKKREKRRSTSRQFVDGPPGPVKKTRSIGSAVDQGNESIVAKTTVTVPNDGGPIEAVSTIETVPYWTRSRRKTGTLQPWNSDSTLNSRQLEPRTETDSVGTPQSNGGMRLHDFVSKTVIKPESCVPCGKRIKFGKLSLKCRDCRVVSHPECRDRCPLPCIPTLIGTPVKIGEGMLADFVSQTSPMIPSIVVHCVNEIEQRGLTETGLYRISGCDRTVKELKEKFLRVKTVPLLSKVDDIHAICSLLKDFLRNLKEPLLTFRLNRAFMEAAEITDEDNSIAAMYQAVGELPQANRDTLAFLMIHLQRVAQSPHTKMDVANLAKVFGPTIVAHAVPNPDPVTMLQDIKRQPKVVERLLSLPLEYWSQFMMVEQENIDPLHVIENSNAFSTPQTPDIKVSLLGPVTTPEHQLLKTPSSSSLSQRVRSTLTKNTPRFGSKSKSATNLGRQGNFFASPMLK

[19] = Luminescence Cell-Based Dose Confirmation HTS to Identify Inhibitors of Platelet Dense Granule Release. [Related pubchem assays: 1663 (Primary HTS), 1678 (Summary of Project)]; format: functional
[20] = target: Luciferin 4-monooxygenase (Photinus pyralis, UniProt P08659); assay: inhibition of purified Photinus pyralis luciferase – biochemical, luminescence, dose response (AID 1891)
Luciferin 4-monooxygenase, sequence (P08659 whole entry): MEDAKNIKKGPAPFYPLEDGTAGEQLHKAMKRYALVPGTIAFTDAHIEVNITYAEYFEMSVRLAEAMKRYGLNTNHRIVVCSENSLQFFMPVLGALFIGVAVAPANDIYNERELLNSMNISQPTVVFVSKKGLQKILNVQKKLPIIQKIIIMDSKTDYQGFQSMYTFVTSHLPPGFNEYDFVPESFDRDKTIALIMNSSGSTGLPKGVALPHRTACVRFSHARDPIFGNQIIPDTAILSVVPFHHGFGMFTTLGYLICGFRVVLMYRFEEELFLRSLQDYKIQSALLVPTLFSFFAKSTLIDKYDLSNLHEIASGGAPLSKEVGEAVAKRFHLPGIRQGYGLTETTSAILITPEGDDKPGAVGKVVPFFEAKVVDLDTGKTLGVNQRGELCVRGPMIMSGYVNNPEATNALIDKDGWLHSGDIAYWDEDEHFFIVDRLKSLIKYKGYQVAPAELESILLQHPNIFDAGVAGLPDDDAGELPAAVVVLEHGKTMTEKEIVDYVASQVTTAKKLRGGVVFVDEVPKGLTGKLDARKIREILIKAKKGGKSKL

COc1ccc(CN2CCN(C(=O)c3ccc(F)cc3)CC2)c(OC)c1
EC50 [1]: 3.76 µM (active)

CCCC(c1nnnn1Cc1ccc(OC)cc1)N1CCN(c2ccccc2OC)CC1 (stereo not given)
EC50 [2]: > 50 µM (active)

Cc1ccc2c(c1)N(C(=O)CCC(=O)Nc1ccccc1Cl)CC(C)O2 (stereo not given)
EC50 [1]: 1.5 µM (active)

COc1ccc(OC)c(S(=O)(=O)N2CCC(C(=O)NCCc3ccc(OC)c(OC)c3)CC2)c1
EC50 [2]: > 50 µM (active)

O=C(Cc1ccccc1)N1CCN(Cc2cccc(Br)c2)CC1
EC50 [1]: 13.3 µM (active)

N#Cc1nc(-c2ccc(OCc3ccccc3)cc2)oc1NCCCn1ccnc1
CC50 [3]: > 40 µM (active)
CC50 [4]: 24.7 µM (active)
IC50 (cells): 46.5 µM (active)

CC(C)(C)Nc1nc(NC(C)(C)C)nc(-n2ccnc2)n1
CC50 [4]: > 40 µM (active)
IC50 (cells): 22.9 µM (active)

NNC(=O)CCc1nc2ccc(O)cc2[nH]1
AC50 [5]: 3.82 µM (active)

Cc1cc(N)ccc1NC(=O)CN1CCCC1
AC50 [6]: 1.73 µM (active)

NC(=O)SCC(=O)Nc1ccc(Cl)c(Cl)c1
EC50 [7]: 31 µM (active)
EC50 [8]: 50.8 µM (active)
IC50 [9]: > 66 µM (inactive)
IC50 [10]: > 66 µM (inactive)
EC50 [2]: > 50 µM (active)

Oc1cnnc(Nc2ccc(Nc3ccccc3)cc2)n1
AC50 [5]: 0.323 µM (active)

CN(C)c1ccc(C(=S)N2CCNCC2)cc1
AC50 [5]: 2.18 µM (active)

OCCN1CCN(CC(O)COc2ccc(C34CC5CC(CC(C5)C3)C4)cc2)CC1 (stereo not given)
EC50 [11]: > 120 µM (not active)
EC50 [12]: > 120 µM (not active)
AC50 [6]: 16 µM (active)
EC50 [13]: > 120 µM (not active)

COc1cccc(C(=O)N2CCCC(Nc3ccc(C)c(C)c3)C2)c1 (stereo not given)
AC50 [5]: 7.17 µM (active)

CC(=O)c1ccc(-[n+]2cc(-c3ccc(C(C)(C)C)cc3)n3c2SCCC3)cc1
EC50 [14]: 2.03 µM (active)
CC50 [3]: > 40 µM (active)
EC50 [15]: 0.443 µM (active)
EC50 [16]: > 60 µM (not active)
CC50 [4]: 11.4 µM (active)
IC50 (cells): 20.9 µM (active)
EC50 [17]: > 150 µM (inactive)

CCOc1c(Cl)cc(CNCC(O)c2ccccc2)cc1OC (stereo not given)
EC50 [1]: 2.11 µM (active)

COc1cc(C(=O)NCC(c2ccco2)N2CCc3ccccc32)cc(OC)c1OC (stereo not given)
AC50 [5]: 5.5 µM (active)

Cc1cccc(-n2nc(C)c3c(C(=O)O)cc(-c4cccs4)nc32)c1
EC50 [1]: 2.99 µM (active)

O=S(=O)(c1ccccc1)N1CCN(C/C=C/c2ccccc2)CC1
EC50 [1]: 5.96 µM (active)

CCC(Sc1nc2cc[nH]cc-2n1)C(=O)Nc1ccc(C)c(Cl)c1 (stereo not given)
EC50 [15]: 2.06 µM (active)
EC50 [16]: > 60 µM (not active)
EC50 [2]: > 50 µM (active)

NC(=O)C1C(=O)c2ccccc2C1(C[N+](=O)[O-])c1ccccc1 (stereo not given)
AC50 (Caspase-6): 38.1 µM (active)

Cn1c(N)c(N=O)c(=O)n(C)c1=S
AC50 (Caspase-6): 6.37 µM (active)

Cc1cc(-c2c(C)[nH]n(-c3ccccc3)c2=O)[nH]n1
AC50 [5]: 5.41 µM (active)
CC50 [3]: 33 µM (active)
CC50 [4]: > 40 µM (active)
IC50 (cells): 5.35 µM (active)

CC12CCC(C(=O)N/N=C/c3ccc(O)cc3)(OC1=O)C2(C)C (stereo not given)
AC50 [5]: 0.099 µM (active)

Cc1nc2ccc(-c3nc4cc(N)ccc4[nH]3)cc2[nH]1
IC50 [18]: 54 µM (active)
AC50 [5]: 0.736 µM (active)
EC50 [11]: 38 µM (active)
EC50 [12]: > 120 µM (not active)
EC50 [13]: 16.6 µM (active)

O=C(/C=C/c1ccc(O)cc1)c1ccccc1 [4-HYDROXYCHALCONE]
EC50 [19]: < 0.701 µM (active)
EC50 [20]: < 0.088 µM (active)
EC50 [2]: > 50 µM (active)

C[C@](N)(Cc1ccc(O)c(O)c1)C(=O)O [METHYLDOPA]
AC50 (Caspase-6): 39.2 µM (active)

CC[C@@H](CO)NC(=O)[C@@H]1C=C2c3cccc4[nH]cc(c34)C[C@H]2N(C)C1 [METHYLERGONOVINE MALEATE]
AC50 (Caspase-6): 7.04 µM (active)
